From patent US20160244436A1, “NOVEL FUNCTIONALIZED 5-(PHENOXYMETHYL)-1,3-DIOXANE ANALOGS EXHIBITING CYTOCHROME P450 INHIBITION AND THEIR METHOD OF USE” (CORTENDO AB (PUBL), priority 2013, published 2016)
pIC50: −log10 of the molar value.

Key:
Assay type in all cases: cell-based
recombinant CYP-17 = molecular target: T1, recombinant CYP-17 (Homo sapiens, UniProt P05093); assay: Cyp17 assay: AD293 cells over-expressing recombinant CYP-17, 3H-acetic acid release from [21-3H] 17α-hydroxyl-Pregnenolone
T1 construct: expressed in transfected cells; host or cells: AD293
T1 sequence (P05093 1-508): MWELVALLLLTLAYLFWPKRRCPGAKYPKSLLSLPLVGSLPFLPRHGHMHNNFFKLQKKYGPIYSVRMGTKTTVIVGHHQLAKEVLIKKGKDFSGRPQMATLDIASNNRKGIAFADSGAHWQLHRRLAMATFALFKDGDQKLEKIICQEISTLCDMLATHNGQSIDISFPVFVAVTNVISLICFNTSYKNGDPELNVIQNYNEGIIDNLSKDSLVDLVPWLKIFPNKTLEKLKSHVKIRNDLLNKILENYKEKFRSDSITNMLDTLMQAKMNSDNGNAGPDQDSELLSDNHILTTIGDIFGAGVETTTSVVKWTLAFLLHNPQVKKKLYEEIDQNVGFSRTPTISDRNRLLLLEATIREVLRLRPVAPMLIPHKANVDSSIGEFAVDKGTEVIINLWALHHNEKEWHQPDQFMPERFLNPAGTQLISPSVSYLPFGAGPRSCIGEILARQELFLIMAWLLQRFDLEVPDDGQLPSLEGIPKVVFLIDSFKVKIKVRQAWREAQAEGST
Method: Cyp17 assay protocol: AD293 cells that stably over-express recombinant CYP-17 were seeded in 96 well plates coated with poly D-lysine (15,000 cell per well) and incubated at 37° C. for 24 hours in Dulbecco's Modified Eagle Medium (DMEM) with Fetal Bovine Serum (FBS) that is stripped of hormones by charcoal treatment. The media is then removed, the cells are washed once with Phosphate buffer saline solution, and 50 μL Dulbecco's Modified Eagle Medium (DMEM) with Fetal Bovine Serum (FBS) that is stripped of hormones by charcoal treatment is added. Compounds of the disclosure are then added to the wells in eight concentration spanning 10 μM to 4.5 nM, and the plates are incubated for an additional 60 minutes at 37° C. [21-^3H] 17α-hydroxyl-Pregnenolone is then added (50 nCi per well, 31.25 nM) and the plates are incubated for an additional 4 hours at 37° C. The media is then collected, 200 μL, of chloroform is added, and the mixture is shaken for 1 hour. The aqueous layer is then separated and analyzed for the presence of ^3H-acetic acid using a Perkin Elmer Topcount NXT to determine IC50s of the compounds of the disclosure.

recombinant CYP-11 = molecular target: T2, recombinant CYP-11 (Homo sapiens, UniProt P15538); assay: Cyp11 assay: AD293 cells over-expressing recombinant CYP-11, cortisol formation from 11-deoxycortisol by LC/MS
T2 construct: expressed in transfected cells; host or cells: AD293
T2 sequence (P15538 25-503): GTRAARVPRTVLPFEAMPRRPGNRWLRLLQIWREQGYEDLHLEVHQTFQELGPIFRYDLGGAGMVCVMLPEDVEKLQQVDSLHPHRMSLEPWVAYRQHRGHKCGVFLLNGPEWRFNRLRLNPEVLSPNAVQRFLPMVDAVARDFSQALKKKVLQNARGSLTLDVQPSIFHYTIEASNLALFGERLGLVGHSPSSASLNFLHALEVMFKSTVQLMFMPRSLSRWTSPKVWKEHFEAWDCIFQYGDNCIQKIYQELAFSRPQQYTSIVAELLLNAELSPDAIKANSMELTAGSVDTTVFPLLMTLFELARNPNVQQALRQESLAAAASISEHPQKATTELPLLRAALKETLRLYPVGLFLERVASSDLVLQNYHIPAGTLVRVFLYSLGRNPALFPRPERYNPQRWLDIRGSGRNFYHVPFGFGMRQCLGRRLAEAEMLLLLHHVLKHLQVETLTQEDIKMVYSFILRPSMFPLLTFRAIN
Method: Cyp11 assay protocol: AD293 cells that stably over-express recombinant CYP-11 were seeded in 96 well plates coated with poly D-lysine (15,000 cell per well) and incubated at 37° C. for 24 hours in Dulbecco's Modified Eagle Medium (DMEM) with Fetal Bovine Serum (FBS) that is stripped of hormones by charcoal treatment. The media is then removed, the cells are washed once with Phosphate buffer saline solution, and 50 μL Dulbecco's Modified Eagle Medium (DMEM) with Fetal Bovine Serum (FBS) that is stripped of hormones by charcoal treatment is added. Compounds of the disclosure are then added to the wells in eight concentration spanning 10 μM to 4.5 nM, and the plates are incubated for an additional 60 minutes at 37° C. 11-deoxycortisol is then added (2.0 μM) and the plates are incubated for an additional 12 hours at 37° C. After incubation, 50 uL of the supernatant (medium) is transferred into a fresh plate and 150 uL of an acetonitrile solution containing 200 ng/ml of Telmisartan is added. The sample is mixed and then placed in a centrifuge at 2000 rpm for 5 minutes. 100 uL of the supernatant is transferred into a fresh 96 well deep well plate, 100 uL of 1:1 methanol:water was added, the solution was mixed and then analyzed by LC/MS for the presence of cortisol using an Agilent 1200 RRLC/ABSCIEX API4000 LC-MS or Shimadzu Prominance/ABSCIEX API4000 LC-MS to determine IC5os of the compounds of the disclosure.

recombinant CYP-21 = molecular target: T3, recombinant CYP-21 (Homo sapiens, UniProt P08686); assay: Cyp21 assay: AD293 cells over-expressing recombinant CYP-21, 11-deoxycortisol formation from 17α-OH Progesterone by LC/MS
T3 construct: expressed in transfected cells; host or cells: AD293
T3 sequence (P08686 1-495): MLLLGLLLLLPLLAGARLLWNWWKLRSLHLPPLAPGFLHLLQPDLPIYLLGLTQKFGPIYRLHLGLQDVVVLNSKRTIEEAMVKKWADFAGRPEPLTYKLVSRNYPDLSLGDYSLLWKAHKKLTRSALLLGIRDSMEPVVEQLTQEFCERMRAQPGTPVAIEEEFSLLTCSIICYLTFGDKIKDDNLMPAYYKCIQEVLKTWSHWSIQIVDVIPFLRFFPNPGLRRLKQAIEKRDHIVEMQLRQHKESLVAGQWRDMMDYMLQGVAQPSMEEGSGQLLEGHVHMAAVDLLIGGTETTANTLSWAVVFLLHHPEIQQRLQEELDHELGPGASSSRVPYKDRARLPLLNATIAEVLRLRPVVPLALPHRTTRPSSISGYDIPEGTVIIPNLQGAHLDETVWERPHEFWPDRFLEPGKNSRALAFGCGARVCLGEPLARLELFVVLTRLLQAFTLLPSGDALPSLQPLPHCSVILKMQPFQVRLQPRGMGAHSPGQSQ
Method: Cyp21 assay protocol: AD293 cells that stably over-express recombinant CYP-21 were seeded in 96 well plates coated with poly D-lysine (10,000 cell per well) and incubated at 37° C. for 24 hours in Dulbecco's Modified Eagle Medium (DMEM) with Fetal Bovine Serum (FBS) that is stripped of hormones by charcoal treatment. The media is then removed, the cells are washed once with Phosphate buffer saline solution, and 50 μL Dulbecco's Modified Eagle Medium (DMEM) with Fetal Bovine Serum (FBS) that is stripped of hormones by charcoal treatment is added. Compounds of the disclosure are then added to the wells in eight concentration spanning 10 μM to 4.5 nM, and the plates are incubated for an additional 60 minutes at 37° C. 17α-OH Progesterone is then added (1.0 μM) and the plates are incubated for an additional 45 minutes at 37° C. After incubation, 50 uL of the supernatant (medium) is transferred into a fresh plate and 150 uL of an acetonitrile solution containing 200 ng/ml of Telmisartan is added. The sample is mixed and then placed in a centrifuge at 2000 rpm for 5 minutes. 100 uL of the supernatant is transferred into a fresh 96 well deep well plate, 100 uL of 1:1 methanol:water was added, the solution was mixed and then analyzed by LC/MS for the presence of 11-deoxycortisol using an Agilent 1200 RRLC/ABSCIEX API4000 LC-MS or Shimadzu Prominance/ABSCIEX API4000 LC-MS to determine IC5os of the compounds of the disclosure.

Row | Compound | pIC50 (recombinant CYP-17) | pIC50 (recombinant CYP-11) | pIC50 (recombinant CYP-21)
1 | CC(=O)N1CCN(c2ccc(CO[C@H]3CO[C@](Cn4ccnc4)(c4ccc(Cl)cc4Cl)OC3)cc2)CC1 [Example 500015] | 8.10 | 7.92 | 6.68
2 | CC(=O)N1CCN(c2ccc(CO[C@H]3CO[C@@](Cn4ccnc4)(c4ccccc4Cl)OC3)cc2)CC1 [Example 500004] | ≤ 5.00 | – | –
3 | CN(C)C(=O)N1CCN(c2ccc(CO[C@H]3CO[C@](Cn4ccnc4)(c4ccccc4Cl)OC3)cc2)CC1 [Example 510013] | 7.57 | 7.15 | 6.10
4 | CS(=O)(=O)N1CCN(c2ccc(CO[C@H]3CO[C@@](Cn4ccnc4)(c4ccccc4Cl)OC3)cc2)CC1 [Example 500013] | 5.82 | – | 5.60
5 | Clc1ccc([C@]2(Cn3ccnc3)OC[C@@H](OCc3ccc(-c4ccncc4)cc3)CO2)c(Cl)c1 [Example 500024] | 7.48 | 7.64 | 7.17
6 | CCOC(=O)CNC(=O)N1CCN(c2ccc(CO[C@H]3CO[C@@](Cn4ccnc4)(c4ccccc4Cl)OC3)cc2)CC1 [Example 510019] | ≤ 5.00 | 5.24 | –
7 | CS(=O)(=O)N1CCN(c2ccc(CO[C@H]3CO[C@](Cn4ccnc4)(c4ccccc4Cl)OC3)cc2)CC1 [Example 500012] | 7.92 | 7.00 | 5.82
8 | COCCOC(=O)N1CCN(c2ccc(CO[C@H]3CO[C@](Cn4ccnc4)(c4ccccc4Cl)OC3)cc2)CC1 [Example 510014] | 7.70 | 6.85 | 6.24
9 | O=S(=O)(CCCCl)N1CCN(c2ccc(CO[C@H]3CO[C@](Cn4ccnc4)(c4ccc(Cl)cc4Cl)OC3)cc2)CC1 [Example 500017] | 6.97 | 7.57 | 5.96
10 | Clc1ccccc1[C@]1(Cn2ccnc2)OC[C@H](OCc2ccc(N3CCOCC3)cc2)CO1 [Example 500006] | 5.10 | – | 5.32
11 | O=S(=O)(c1cccc(OC(F)(F)F)c1)N1CCN(c2ccc(CO[C@H]3CO[C@](Cn4ccnc4)(c4ccc(Cl)cc4Cl)OC3)cc2)CC1 [Example 500022] | 7.00 | 7.89 | 6.77
12 | Clc1ccccc1[C@]1(Cn2ccnc2)OC[C@@H](OCc2ccc(-c3ccncc3)cc2)CO1 [Example 510017] | 7.38 | 6.36 | 6.41
13 | COCCOC(=O)N1CCN(c2ccc(CO[C@H]3CO[C@@](Cn4ccnc4)(c4ccccc4Cl)OC3)cc2)CC1 [Example 510012] | 5.60 | – | 6.10
14 | CCS(=O)(=O)N1CCN(c2ccc(CO[C@H]3CO[C@](Cn4ccnc4)(c4ccc(Cl)cc4Cl)OC3)cc2)CC1 [Example 500021] | 8.05 | 6.70 | 6.89

The next lines start with the values.

Row | pIC50 (recombinant CYP-17) | pIC50 (recombinant CYP-11) | pIC50 (recombinant CYP-21) | Compound
15 | 7.12 | 7.43 | 6.38 | N#Cc1cccc(S(=O)(=O)N2CCN(c3ccc(CO[C@H]4CO[C@](Cn5ccnc5)(c5ccc(Cl)cc5Cl)OC4)cc3)CC2)c1 [Example 500016]
16 | 7.96 | 7.60 | 6.96 | CC(C)S(=O)(=O)N1CCN(c2ccc(CO[C@H]3CO[C@](Cn4ccnc4)(c4ccc(Cl)cc4Cl)OC3)cc2)CC1 [Example 500020]
17 | 7.96 | 8.22 | 6.58 | O=S(=O)(C1CC1)N1CCN(c2ccc(CO[C@H]3CO[C@](Cn4ccnc4)(c4ccc(Cl)cc4Cl)OC3)cc2)CC1 [Example 500018]
18 | 7.89 | 7.92 | 6.56 | O=S(=O)(c1cccnc1)N1CCN(c2ccc(CO[C@H]3CO[C@](Cn4ccnc4)(c4ccc(Cl)cc4Cl)OC3)cc2)CC1 [Example 500025]
19 | 6.59 | – | 6.02 | Clc1ccccc1[C@]1(Cn2ccnc2)OC[C@@H](OCc2ccc(N3CCOCC3)cc2)CO1 [Example 500005]
20 | 5.96 | 7.92 | – | CC(=O)N1CCN(c2ccc(CO[C@H]3CO[C@@](Cn4ccnc4)(c4ccc(Cl)cc4Cl)OC3)cc2)CC1 [Example 500019]
21 | 7.17 | 7.85 | 6.37 | O=S(=O)(c1c[nH]cn1)N1CCN(c2ccc(CO[C@H]3CO[C@](Cn4ccnc4)(c4ccc(Cl)cc4Cl)OC3)cc2)CC1 [Example 500023]
22 | 6.84 | 6.28 | 5.83 | CC(=O)N1CCN(c2ccc(CO[C@H]3CO[C@](Cn4ccnc4)(c4ccccc4Cl)OC3)cc2)CC1 [Example 500003]
23 | 7.40 | 6.97 | 5.55 | CCOC(=O)CNC(=O)N1CCN(c2ccc(CO[C@H]3CO[C@](Cn4ccnc4)(c4ccccc4Cl)OC3)cc2)CC1 [Example 510018]
